Reference: the NIST ThermoML archive (doi:10.1021/je400879v)

Experiment: molar heat capacity at constant pressure
Conditions: 101.33 kPa, Crystal

COC(=O)[C@H](Cc1ccccc1)NC(=O)[C@H](CC(C)C)NC(=O)[C@H](CCSC)NC=O [methyl formyl-L-methionyl-L-leucyl-L-phenylalaninate]
Conditions | molar heat capacity at constant pressure [J/K/mol]
5 K | 1.99
6.02 K | 2.6
6.13 K | 2.71
6.28 K | 2.91
6.43 K | 3.21
6.59 K | 3.52
6.73 K | 3.88
6.88 K | 4.29
7.04 K | 4.56
7.19 K | 4.97
7.35 K | 5.42
7.52 K | 5.83
7.66 K | 6.28
7.84 K | 6.73
7.98 K | 7.23
8.17 K | 7.72
8.33 K | 8.13
8.5 K | 8.58
8.7 K | 9.08
8.84 K | 9.48
8.98 K | 9.89
9.13 K | 10.3
9.3 K | 10.7
9.45 K | 11
9.62 K | 11.5
9.78 K | 11.8
9.95 K | 12.3
10 K | 12.5
10.27 K | 13.2
10.63 K | 14.1
11.04 K | 15
11.45 K | 16
11.88 K | 17.1
12.29 K | 18
12.79 K | 19.2
13.24 K | 20.4
13.71 K | 21.7
14.18 K | 22.7
14.65 K | 24.1
15 K | 25.1
15.12 K | 25.3
15.6 K | 26.78
15.99 K | 28
16.64 K | 29.85
17.1 K | 31.58
17.62 K | 33.24
18.1 K | 34.79
18.78 K | 37.21
19.22 K | 38.75
19.72 K | 40.59
20 K | 41.76
21.41 K | 47.32
23.4 K | 55.2
25 K | 61.13
25.67 K | 63.45
27.96 K | 71.89
30 K | 79.28
30.29 K | 80.5
32.65 K | 88.71
35.04 K | 96.64
37.44 K | 105
39.87 K | 112.9
40 K | 113.3
42.32 K | 120.6
44.78 K | 127.7
47.26 K | 134.1
49.75 K | 139.9
50 K | 140.8
52.01 K | 145.9
54.78 K | 153.1
57.3 K | 160.1
59.87 K | 167.1
60 K | 167.6
62.41 K | 174.3
64.96 K | 181.3
66.9 K | 186.5
70 K | 194.3
70.06 K | 194.1
72.6 K | 201
75.15 K | 206
77.73 K | 212.1
80 K | 216.1
80.1 K | 216.1
82.93 K | 221.7
85.5 K | 227
88.2 K | 232.3
90 K | 236.3
90.6 K | 238.4
90.85 K | 237.1
93.51 K | 243.4
96.19 K | 248.8
98.88 K | 253.3
100 K | 256.4
101.58 K | 258.9
104.28 K | 264
106.98 K | 269.4
109.69 K | 274.9
110 K | 275.6
112.38 K | 279.5
115.08 K | 284.3
117.78 K | 289.3
120 K | 292.9
120.47 K | 293.3
123.16 K | 297.5
125.85 K | 302.5
128.53 K | 306.7
130 K | 309.1
131.22 K | 310.6
133.99 K | 316.2
136.67 K | 319.1
139.35 K | 323.5
140 K | 324.7
142.02 K | 328.1
144.68 K | 332.5
147.35 K | 336.5
150 K | 340.1
150.01 K | 340.6
152.68 K | 344.7
155.33 K | 348.5
157.99 K | 352.9
160 K | 355.6
160.64 K | 357.2
163.28 K | 361.6
165.92 K | 365.7
168.56 K | 368.7
170 K | 371.3
171.19 K | 373.7
174.6 K | 377.8
176.09 K | 381.5
179.5 K | 385.9
180 K | 387.3
182.11 K | 390.6
184.71 K | 394.8
187.31 K | 398.3
189.9 K | 402.2
190 K | 403.7
192.49 K | 407.4
195.07 K | 411.8
197.64 K | 416.1
200 K | 420.3
200.2 K | 420
202.74 K | 423.8
205.27 K | 428.2
207.77 K | 433.6
210 K | 437.2
210.28 K | 436.5
212.77 K | 442.5
215.23 K | 446.4
217.6 K | 450.8
220 K | 454.3
220.02 K | 455.6
222.4 K | 459.1
224.71 K | 463.1
227.02 K | 467.1
229.33 K | 471.1
230 K | 471.6
231.66 K | 475.2
234 K | 478.4
236.36 K | 484.2
238.72 K | 488
240 K | 489
241.09 K | 490.9
243.46 K | 493.2
245.83 K | 498.9
248.18 K | 503
250 K | 506.5
250.5 K | 507.1
252.78 K | 509.6
254.83 K | 514.5
257.07 K | 518.7
259.3 K | 523.3
260 K | 524.3
261.5 K | 528
263.68 K | 532.6
265.84 K | 535.2
267.99 K | 539.2
270 K | 542.4
270.16 K | 543.2
272.34 K | 547.3
274.5 K | 552.1
276.67 K | 554.9
277.1 K | 557.8
279.97 K | 561.2
280 K | 561.1
282.11 K | 564.9
284.23 K | 568.8
286.34 K | 571.5
288.8 K | 578
290 K | 580.7
290.49 K | 581
292.53 K | 584.6
294.54 K | 587.8
296.39 K | 591.6
298.15 K | 597.6
298.4 K | 596.2
300 K | 601.6
300.24 K | 601.4
302.09 K | 606.6
304.77 K | 614.7
307.42 K | 619.1
309.83 K | 624.8
310 K | 624.4
312.19 K | 631
314.41 K | 635
316.68 K | 638.7
318.91 K | 645.4
320 K | 649.7
321.09 K | 652.2
323.22 K | 661.1
325.19 K | 665.5
327.12 K | 669.6
329.13 K | 677.2
330 K | 678.4
330.96 K | 681.9
332.75 K | 688.8
334.5 K | 691.9
335.18 K | 695
336.88 K | 700.5
338.54 K | 704.4
340 K | 711.3
340.17 K | 710.6
341.74 K | 717
343.27 K | 723.9
344 K | 726
